Data taken from patent US8426604B2 (Janssen Pharmaceutica NV, priority 2010, dated 2013).

Target: T1, ERR1 (also known as ERR-α or ERR-1) (Homo sapiens, UniProt P11474)
T1 sequence (P11474 193-421 limits assumed): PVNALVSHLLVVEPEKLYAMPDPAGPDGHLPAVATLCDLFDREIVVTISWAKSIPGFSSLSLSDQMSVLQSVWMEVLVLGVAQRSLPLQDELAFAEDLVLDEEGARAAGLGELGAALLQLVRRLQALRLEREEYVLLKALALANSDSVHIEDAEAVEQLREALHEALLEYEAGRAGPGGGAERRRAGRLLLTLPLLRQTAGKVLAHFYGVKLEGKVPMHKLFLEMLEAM
Assay: TR-FRET assay (disruption of co-activator peptide binding)
Type: biochemical
Conditions: 6His-tagged ERR1LBD, GST-hSRC2 co-activator peptide; average of 3 independent experiments
Procedure: Time-Resolved Fluorescence Resonance Energy Transfer (TR-FRET) experiments were performed to examine the functional response of ERR1 (also known as ERR-α or ERR-1) ligands. The TR-FRET assay described herein relied on the conformation of ERR1 for binding to a co-activator peptide: when a test compound binds to ERR1 and alters its conformation, it can disrupt the binding of the co-activator peptide. The components of this homogeneous secondary assay included: the ^6His-tagged-ERR1LBD, a GST-labeled-hSRC2 co-activator polypeptide and a fluorescent donor/acceptor pair from CIS bio international htrf/bioassays (Bedford, Mass.) using both an α-GST Europium Cryptate (Eu) label and an α^6His-XL665 (allophycocyanin) fluorophore.
For TR-FRET measurements, the reaction was buffered in 25 mM Tris pH 8, 2.5 mM Hepes, 20 mM KCl, 1 mM DTT, and 0.05 mg/mL BSA (-lipids). The final concentrations of reagents were 6 nM of ERR1LBD, 6 nM GST-SRC-2 peptide, 30 nM Eu cryptate, and 7.5 nM XL665. Reactions were allowed to reach equilibrium at 25° C. for 4-18 hours before collecting data on the Analyst from LJL Biosystems (Molecular Devices Sunnyvale, Calif.). As a time-resolved method, the samples were excited at […] and emission was collected for 1 ms at both 615 and 665 nm with delays of 400 and 75 μs, respectively. Dose response curves were fitted using a hyperbolic equation and the data reported is the average of 3 independent experiments.

Row | Structure (SMILES) | EC50 [nM]
1 | CN(C1=NC(=O)/C(=C/c2ccc3c(cnn3Cc3ccc(C(F)(F)F)cc3C(F)(F)F)c2)S1)C1CCNC1 (stereo not shown) [Compound 28, 5-[1-(2,4-Bis-trifluoromethyl-benzyl)-1H-indazol-5-ylmethylene]-2-(methyl-pyrrolidin-3-yl-amino)-thiazol-4-one] | 30
2 | CN1CCC(N(C)C2=NC(=O)/C(=C/c3ccc4c(cnn4Cc4ccc(C(F)(F)F)cc4C(F)(F)F)c3)S2)C1 (stereo not shown) [Compound 29, 5-[1-(2,4-Bis-trifluoromethyl-benzyl)-1H-indazol-5-ylmethylene]-2-[methyl-(1-methyl-pyrrolidin-3-yl)-amino]-thiazol-4-one] | 67
3 | CN(C[C@H](O)c1ccc(O)cc1)C1=NC(=O)/C(=C/c2ccc3c(cnn3Cc3ccc(Cl)cc3C(F)(F)F)c2)S1 [Compound 31, (R)-5-[1-(4-Chloro-2-trifluoromethyl-benzyl)-1H-indazol-5-ylmethylene]-2-{[2-hydroxy-2-(4-hydroxy-phenyl)-ethyl]-methyl-amino}-thiazol-4-one] | 31
4 | CN1CCC(CN(C)C2=NC(=O)/C(=C/c3ccc4c(cnn4Cc4ccc(Cl)cc4C(F)(F)F)c3)S2)C1 (stereo not shown) [Compound 34, 5-[1-(4-Chloro-2-trifluoromethyl-benzyl)-1H-indazol-5-ylmethylene]-2-[methyl-(1-methyl-pyrrolidin-3-ylmethyl)-amino]-thiazol-4-one] | 17
5 | CN1CCC(N(C)C2=NC(=O)/C(=C/c3ccc4c(cnn4Cc4ccc(Cl)cc4C(F)(F)F)c3)S2)C1 (stereo not shown) [Compound 35, 5-[1-(4-Chloro-2-trifluoromethyl-benzyl)-1H-indazol-5-ylmethylene]-2-[methyl-(1-methyl-pyrrolidin-3-yl)-amino]-thiazol-4-one] | 18
6 | CCOC(=O)N1CCC(N(C)C2=NC(=O)/C(=C/c3ccc4c(cnn4Cc4ccc(Cl)cc4C(F)(F)F)c3)S2)CC1 [Compound 37, 4-({5-[1-(4-Chloro-2-trifluoromethyl-benzyl)-1H-indazol-5-ylmethylene]-4-oxo-4,5-dihydro-thiazol-2-yl}-methyl-amino)-piperidine-1-carboxylic acid ethyl ester] | 69
7 | COC[C@@H]1CC(N(C)C2=NC(=O)/C(=C/c3ccc4c(cnn4Cc4ccc(C(F)(F)F)cc4C(F)(F)F)c3)S2)CN1 (stereo partly shown) [Compound 40, 5-[1-(2,4-Bis-trifluoromethyl-benzyl)-1H-indazol-5-ylmethylene]-2-[(5-methoxymethyl-pyrrolidin-3-yl)-methyl-amino]-thiazol-4-one] | 21
8 | CN(C1=NC(=O)/C(=C/c2ccc3c(cnn3Cc3ccc(C(F)(F)F)cc3C(F)(F)F)c2)S1)C1CN[C@H](CO)C1 (stereo partly shown) [Compound 43, 5-[1-(2,4-Bis-trifluoromethyl-benzyl)-1H-indazol-5-ylmethylene]-2-[(5-hydroxymethyl-pyrrolidin-3-yl)-methyl-amino]-thiazol-4-one] | 30
9 | COC[C@@H]1CC(N(C)C2=NC(=O)/C(=C/c3ccc4c(cnn4Cc4ccc(C(F)(F)F)cc4C(F)(F)F)c3)S2)CN1C (stereo partly shown) [Compound 44, 5-[1-(2,4-Bis-trifluoromethyl-benzyl)-1H-indazol-5-ylmethylene]-2-[(5-methoxymethyl-1-methyl-pyrrolidin-3-yl)-methyl-amino]-thiazol-4-one] | 32
10 | CN(Cc1cccnc1)C1=NC(=O)/C(=C/c2ccc3c(cnn3Cc3ccc(Cl)cc3C(F)(F)F)c2)S1 [Compound 46, 5-[1-(4-Chloro-2-trifluoromethyl-benzyl)-1H-indazol-5-ylmethylene]-2-(methyl-pyridin-3-ylmethyl-amino)-thiazol-4-one] | 22
11 | COCCN1CCC(CN(C)C2=NC(=O)/C(=C/c3ccc4c(cnn4Cc4ccc(Cl)cc4C(F)(F)F)c3)S2)C1 (stereo not shown) [Compound 47, 5-[1-(4-Chloro-2-trifluoromethyl-benzyl)-1H-indazol-5-ylmethylene]-2-{[1-(2-methoxy-ethyl)-pyrrolidin-3-ylmethyl]-methyl-amino}-thiazol-4-one] | 17
12 | CN(CC(O)CN1CCCC1)C1=NC(=O)/C(=C/c2ccc3c(cnn3Cc3ccc(Cl)cc3C(F)(F)F)c2)S1 (stereo not shown) [Compound 50, 5-[1-(4-Chloro-2-trifluoromethyl-benzyl)-1H-indazol-5-ylmethylene]-2-[(2-hydroxy-3-pyrrolidin-1-yl-propyl)-methyl-amino]-thiazol-4-one] | 23
13 | CCN(CC)CCN(C)C1=NC(=O)/C(=C/c2ccc3c(c2)c(I)nn3Cc2ccc(C(F)(F)F)cc2C(F)(F)F)S1 [Compound 51, 5-[1-(2,4-Bis-trifluoromethyl-benzyl)-3-iodo-1H-indazol-5-ylmethylene]-2-[(2-diethylamino-ethyl)-methyl-amino]-thiazol-4-one] | 11
14 | CC(C(N)=O)N1CCC(N(C)C2=NC(=O)/C(=C/c3ccc4c(cnn4Cc4ccc(C(F)(F)F)cc4C(F)(F)F)c3)S2)CC1 (stereo not shown) [Compound 53, 2-(4-{[-5-({1-[2,4-Bis(trifluoromethyl)benzyl]-1H-indazol-5-yl}methylidene)-4-oxo-4,5-dihydro-1,3-thiazol-2-yl](methyl)amino}piperidin-1-yl)propionamide] | 24
15 | CN(C1=NC(=O)/C(=C/c2ccc3c(cnn3Cc3ccc(Cl)cc3C(F)(F)F)c2)S1)[C@H]1CCNC[C@H]1F [Compound 54, 5-({1-[4-Chloro-2-(trifluoromethyl)benzyl]-1H-indazol-5-yl}methylidene)-2-{[(3R,4S)-3-fluoropiperidin-4-yl](methyl)amino}-1,3-thiazol-4(5H)-one] | 21
16 | CN(C1=NC(=O)/C(=C/c2ccc3c(cnn3Cc3ccc(Cl)cc3C(F)(F)F)c2)S1)[C@H]1CCN(CC(N)=O)C[C@H]1F [Compound 55, 2-[(3R,4S)-4-{[-5-({1-[4-Chloro-2-(trifluoromethyl)benzyl]-1H-indazol-5-yl}methylidene)-4-oxo-4,5-dihydro-1,3-thiazol-2-yl](methyl)amino}-3-fluoropiperidin-1-yl]acetamide] | 13

Next, values leading:

Row | EC50 [nM] | Structure (SMILES)
17 | 12 | CN(CCO)C1=NC(=O)/C(=C/c2ccc3c(cnn3Cc3ccc(Cl)cc3C(F)(F)F)c2)S1 [Compound 30, 5-[1-(4-Chloro-2-trifluoromethyl-benzyl)-1H-indazol-5-ylmethylene]-2-[(2-hydroxy-ethyl)-methyl-amino]-thiazol-4-one]
18 | 15 | CCN(CC)CCN(C)C1=NC(=O)/C(=C/c2ccc3c(cnn3Cc3ccc(Cl)cc3C(F)(F)F)c2)S1 [Compound 32, 5-[1-(4-Chloro-2-trifluoromethyl-benzyl)-1H-indazol-5-ylmethylene]-2-[(2-diethylamino-ethyl)-methyl-amino]-thiazol-4-one]
19 | 13 | CN(CCCn1cccn1)C1=NC(=O)/C(=C/c2ccc3c(cnn3Cc3ccc(Cl)cc3C(F)(F)F)c2)S1 [Compound 33, 5-[1-(4-Chloro-2-trifluoromethyl-benzyl)-1H-indazol-5-ylmethylene]-2-[methyl-(3-pyrazol-1-yl-propyl)-amino]-thiazol-4-one]
20 | 21 | CN(CC1(CO)CC1)C1=NC(=O)/C(=C/c2ccc3c(cnn3Cc3ccc(Cl)cc3C(F)(F)F)c2)S1 [Compound 36, 5-[1-(4-Chloro-2-trifluoromethyl-benzyl)-1H-indazol-5-ylmethylene]-2-[(1-hydroxymethyl-cyclopropylmethyl)-methyl-amino]-thiazol-4-one]
21 | 26 | CN(CCC#N)C1=NC(=O)/C(=C/c2ccc3c(cnn3Cc3ccc(Cl)cc3C(F)(F)F)c2)S1 [Compound 38, 3-({5-[1-(4-Chloro-2-trifluoromethyl-benzyl)-1H-indazol-5-ylmethylene]-4-oxo-4,5-dihydro-thiazol-2-yl}-methyl-amino)-propionitrile]
22 | 25 | C=CCN(C)C1=NC(=O)/C(=C/c2ccc3c(cnn3Cc3ccc(Cl)cc3C(F)(F)F)c2)S1 [Compound 39, 2-(Allyl-methyl-amino)-5-[1-(4-chloro-2-trifluoromethyl-benzyl)-1H-indazol-5-ylmethylene]-thiazol-4-one]
23 | 120 | CN(CC(O)CN)C1=NC(=O)/C(=C/c2ccc3c(cnn3Cc3ccc(Cl)cc3C(F)(F)F)c2)S1 (stereo not shown) [Compound 45, 2-[(3-Amino-2-hydroxy-propyl)-methyl-amino]-5-[1-(4-chloro-2-trifluoromethyl-benzyl)-1H-indazol-5-ylmethylene]-thiazol-4-one]
24 | 43 | CN(C1=NC(=O)/C(=C/c2ccc3c(cnn3Cc3ccc(Cl)cc3C(F)(F)F)c2)S1)C1CNC1 [Compound 48, 2-(Azetidin-3-yl-methyl-amino)-5-[1-(4-chloro-2-trifluoromethyl-benzyl)-1H-indazol-5-ylmethylene]-thiazol-4-one]
25 | 41 | CNCC(O)CN(C)C1=NC(=O)/C(=C/c2ccc3c(cnn3Cc3ccc(Cl)cc3C(F)(F)F)c2)S1 (stereo not shown) [Compound 49, 5-[1-(4-Chloro-2-trifluoromethyl-benzyl)-1H-indazol-5-ylmethylene]-2-[(2-hydroxy-3-methylamino-propyl)-methyl-amino]-thiazol-4-one]
